According to patent publication US11254671B2, “Chemical compounds” (GLAXOSMITHKLINE INTELLECTUAL PROPERTY DEVELOPMENT LIMITED, priority 2017, dated 2022):

System: phosphorylated Akt at serine 473 (pAKTs473) in primary human lung fibroblasts
Experiment: Highthroughput phosphorylated Akt (Ser473) in vitro immunoassay (MSD)
Format: cell-based
Conditions: Fibroblast, 1 h compound, PDGF-BB 10 ng/ml for 10 min, mean of multiple experiments, read-out: mean pIC50, inhibition of pAkt (Ser473) (converted)
Summary of the method: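 Primary human lung fibroblasts in 0.4% FBS were preincubated with compound for 1 h at 37 °C (11-point curve, 0.1% DMSO final), then stimulated with 10 ng/ml PDGF-BB for 10 min. pAkt Ser473 in lysates was measured by MSD electrochemiluminescence; IC50 was derived by non-linear regression between stimulated and unstimulated controls.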

Q: Which IC50 does the source give for CNCc1cc2nc(-c3cc(C(C)(C)S(C)(=O)=O)cc(N4CCOC[C@@H]4C)n3)ccc2[nH]1 [Example 2, (S)—N-methyl-1-(5-(6-(3-methylmorpholino)-4-(2-(methylsulfonyl)propan-2-yl)pyridin-2-yl)-1H-pyrrolo[3,2-b]pyridin-2-yl)methanamine] here?
A: 3.16 to 316 nM

Q: For CNCc1cc2nc(-c3cc(C(C)(C)S(C)(=O)=O)cc(N4CC5CCC(C4)O5)n3)ccc2[nH]1 [Example 4, 1-(5-(6-(8-oxa-3-azabicyclo[3.2.1]octan-3-yl)-4-(2-(methylsulfonyl)propan-2-yl)pyridin-2-yl)-1H-pyrrolo[3,2-b]pyridin-2-yl)-N-methylmethanamine], which IC50 is on record?
A: 3.16 to 316 nM
